Assay results from patent US10968266B2, “GIP peptide analogues” (University of Copenhagen, priority 2014, dated 2021).
No end group written: not given here.

Tests used:
human GIP receptor [1] = biological target: T1, human GIP receptor (Homo sapiens, UniProt P48546); assay: Competitive binding assay with 125I-labelled GIP radioligands, COS-7 cells transfected with human GIP receptor (Example 7)
T1 construct: host or cells: COS-7 cells, transient transfection (calcium phosphate precipitation), pCMV-Script vector
T1 sequence (P48546 22-466): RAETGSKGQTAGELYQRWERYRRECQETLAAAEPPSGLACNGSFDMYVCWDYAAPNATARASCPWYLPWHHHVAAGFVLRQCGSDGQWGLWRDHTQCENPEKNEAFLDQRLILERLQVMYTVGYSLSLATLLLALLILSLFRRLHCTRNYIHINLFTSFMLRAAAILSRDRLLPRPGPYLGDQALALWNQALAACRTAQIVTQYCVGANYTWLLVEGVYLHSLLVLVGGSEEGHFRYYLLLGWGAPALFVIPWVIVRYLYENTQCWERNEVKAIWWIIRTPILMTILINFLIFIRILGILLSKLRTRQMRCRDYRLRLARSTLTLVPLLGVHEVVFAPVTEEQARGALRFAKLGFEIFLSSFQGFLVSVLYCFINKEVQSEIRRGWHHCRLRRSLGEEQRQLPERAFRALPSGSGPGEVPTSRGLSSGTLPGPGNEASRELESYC
Protocol: Transfection of COS-7 cells was performed using the calcium phosphate precipitation method with chloroquine addition as previously described (Kissow et al., 2012). […] Nonspecific binding was determined as the binding of radioligand to untransfected cells. All determinations were made in duplicates, and all experiments repeated at least three times. The samples were analyzed for radioactivity using a Wallac Wizard 1470 Gamma Counter (GMI Inc., Minnesota, USA). The number “n” refers to individual experiments with separate transfections although from same cell line. IC50, EC50, and Kd/Ki values were determined by nonlinear regression. […] Statistical analyses (unpaired t-tests) of two parameters were also performed with GraphPad Prism 6.0. The calculations of Bmax and Ki values were based on the formula for one class of binding sites in homologous competition binding studies and the Cheng Prussoffs formula, respectively (DeBlasi et al., 1989). Kd is the dissociation constant determined by homologous receptor binding. […] Schild plots were performed with log (DR-1) (ordinate) and log(antagonist concentration) (abscissa) to estimate the slopes and Ki values (Lazareno and Birdsall, 1993).

human GIP receptor [2] = biological target: T1, human GIP receptor; assay: cAMP accumulation assay (agonism, antagonism, Schild analysis), COS-7 cells transfected with human GIP receptor (Example 7); format: cell-based; settings: for Slope of Schild plot: GIP(1-42) dose-response curves with fixed antagonist concentrations; for IC50 / cAMP accumulation logIC50 ± SEM (antagonism): inhibition of GIP(1-42) at 50-80% of max receptor activation; for cAMP accumulation logIC50 ± SEM (antagonism): given with negative sign; for Intrinsic agonistic activity in cAMP accumulation: agonist mode
Protocol: COS-7 cells were grown in 10% CO2 and at 37° C. in Dulbecco's modified Eagle's medium 1885 supplemented with 10% fetal bovine serum, 2 mM glutamine, 180 units/ml penicillin, and 45 µg/ml streptomycin. Transfection of COS-7 cells was performed using the calcium phosphate precipitation method with chloroquine addition as previously described (Kissow et al., 2012).
Two days after transfection the cells were washed once with HEPES buffered saline (HBS) and incubated with HBS and 0.5 mM 3-isobutyl-1-methylxanthine (IBMX) for 30 minutes at 37° C. […] After ligand incubation, the HitHunter™ cAMP XS assay (an enzyme fragment complementation-based assay, DiscoveRx, Birmingham, United Kingdom) was carried out according to the manufacturer's instructions. All experiments were made in duplicates, and repeated at least three times. Luminescence was measured by Perkin Elmer™ EnVision 2104 Multilabled reader (Skovlunde, Danmark). In brief, the cells were lysed in the wells, the enzyme fragment-cAMP-antibody, an enzyme fragment and the enzyme substrates were added followed by 1 hour incubation at room temperature on shaker tray. The other enzyme fragment was added to the wells and incubated for 4 hours on shaker tray followed by measurements of luminescence. The ligand-induced cAMP competed with the binding of antibody to the first enzyme fragment and left the two fragments to fuse. The enzyme complex hydrolyzed the substrates and yielded luminescence. The number “n” refers to individual experiments with separate transfections although from same cell line.
IC50, EC50, and Kd/Ki values were determined by nonlinear regression. These, as well as maximal binding capacity (Bmax) values and Schild plot analysis were carried out with the GraphPad Prism 6.0 software (GraphPad, San Diego, Calif., USA) and Microsoft Excel™. Statistical analyses (unpaired t-tests) of two parameters were also performed with GraphPad Prism 6.0. The calculations of Bmax and Ki values were based on the formula for one class of binding sites in homologous competition binding studies and the Cheng Prussoffs formula, respectively (DeBlasi et al., 1989). Kd is the dissociation constant determined by homologous receptor binding. […] Schild plots were performed with log (DR-1) (ordinate) and log(antagonist concentration) (abscissa) to estimate the slopes and Ki values (Lazareno and Birdsall, 1993).

In the case of CC[C@H](C)[C@H](NC(=O)[C@H](CO)NC(=O)[C@H](Cc1ccc(O)cc1)NC(=O)[C@H](CC(=O)O)NC(=O)[C@H](CO)NC(=O)[C@@H](NC(=O)[C@@H](N)Cc1ccccc1)[C@@H](C)CC)C(=O)N[C@@H](C)C(=O)N[C@@H](CCSC)C(=O)N[C@@H](CC(=O)O)C(=O)N[C@@H](CCCCN)C(=O)N[C@H](C(=O)N[C@@H](Cc1c[nH]cn1)C(=O)N[C@@H](CCC(N)=O)C(=O)N[C@@H](CCC(N)=O)C(=O)N[C@@H](CC(=O)O)C(=O)N[C@@H](Cc1ccccc1)C(=O)N[C@H](C(=O)N[C@@H](CC(N)=O)C(=O)N[C@@H](Cc1c[nH]c2ccccc12)C(=O)N[C@@H](CC(C)C)C(=O)N[C@@H](CC(C)C)C(=O)N[C@@H](C)C(=O)N[C@@H](CCC(N)=O)C(=O)N[C@@H](CCCCN)C(N)=O)C(C)C)[C@@H](C)CC [GIP(6-30)NH2, reference compound], the “fold change GIP(1-30)NH2” value (human GIP receptor [1]; radioligand 125I-GIP(1-30)NH2, relative to GIP(1-30)NH2) is reported as 3502 fold, the IC50 (human GIP receptor [1]; radioligand 125I-GIP(2-30)NH2) is reported as 340 nM and the “fold change GIP(1-30)NH2” value (human GIP receptor [1]; radioligand 125I-GIP(2-30)NH2, relative to GIP(1-30)NH2) is reported as 707 fold. The IC50 (human GIP receptor [1]; radioligand 125I-GIP(3-30)NH2) was 370 nM, the “fold change GIP(1-30)NH2” value (human GIP receptor [1]; radioligand 125I-GIP(3-30)NH2, relative to GIP(1-30)NH2) was 223 fold and the “Slope of Schild plot” value (human GIP receptor [2]) was 0.38±0.13. The IC50 (human GIP receptor [2]) was 342 nM and the “cAMP accumulation logIC50 ± SEM (antagonism)” value (human GIP receptor [2]) was −6.47 ± 0.6.
In the case of CC[C@H](C)[C@H](NC(=O)[C@H](CO)NC(=O)[C@H](Cc1ccc(O)cc1)NC(=O)[C@H](CC(=O)O)NC(=O)[C@H](CO)NC(=O)[C@@H](NC(=O)[C@H](Cc1ccccc1)NC(=O)[C@@H](NC(=O)CNC(=O)[C@@H](N)CCC(=O)O)[C@@H](C)O)[C@@H](C)CC)C(=O)N[C@@H](C)C(=O)N[C@@H](CCSC)C(=O)N[C@@H](CC(=O)O)C(=O)N[C@@H](CCCCN)C(=O)N[C@H](C(=O)N[C@@H](Cc1c[nH]cn1)C(=O)N[C@@H](CCC(N)=O)C(=O)N[C@@H](CCC(N)=O)C(=O)N[C@@H](CC(=O)O)C(=O)N[C@@H](Cc1ccccc1)C(=O)N[C@H](C(=O)N[C@@H](CC(N)=O)C(=O)N[C@@H](Cc1c[nH]c2ccccc12)C(=O)N[C@@H](CC(C)C)C(=O)N[C@@H](CC(C)C)C(=O)N[C@@H](C)C(=O)N[C@@H](CCC(N)=O)C(=O)N[C@@H](CCCCN)C(N)=O)C(C)C)[C@@H](C)CC [hGIP(3-30)], the “Fold shift in the dose-response curve of human GIP(1-42)” value (human GIP receptor [2]; 1 μM antagonist) is reported as 281 fold.
For CC[C@H](C)[C@H](NC(=O)[C@H](CO)NC(=O)[C@H](Cc1ccc(O)cc1)NC(=O)[C@H](CC(=O)O)NC(=O)[C@@H](N)CO)C(=O)N[C@@H](C)C(=O)N[C@@H](CCSC)C(=O)N[C@@H](CC(=O)O)C(=O)N[C@@H](CCCCN)C(=O)N[C@H](C(=O)N[C@@H](Cc1c[nH]cn1)C(=O)N[C@@H](CCC(N)=O)C(=O)N[C@@H](CCC(N)=O)C(=O)N[C@@H](CC(=O)O)C(=O)N[C@@H](Cc1ccccc1)C(=O)N[C@H](C(=O)N[C@@H](CC(N)=O)C(=O)N[C@@H](Cc1c[nH]c2ccccc12)C(=O)N[C@@H](CC(C)C)C(=O)N[C@@H](CC(C)C)C(=O)N[C@@H](C)C(=O)N[C@@H](CCC(N)=O)C(=O)N[C@@H](CCCCN)C(N)=O)C(C)C)[C@@H](C)CC [GIP(8-30)NH2], the “Competitive binding fold (fold change of GIP(1-30)NH2 affinity)” value (human GIP receptor [1]; radioligand 125I-GIP(1-42), relative to GIP(1-30)NH2) was 89 fold and the IC50 (human GIP receptor [2]) was 133 nM.
In the case of “DYSIAMDKIHQQDFVNWLLAQK-NH2 [GIP(9-30)NH2]”, the “cAMP accumulation logIC50 ± SEM (antagonism)” value (human GIP receptor [2]) is reported as −6.35 ± 0.6 and the “Fold lower antagonistic potency (right-shift) compared to GIP(3-30)NH2” value (human GIP receptor [2]; inhibition of submaximal GIP(1-42) activation) is reported as 38 fold.
With “porcine GIP(3-42): Porcine GIP(3-42), arginine in position 18 and serine in position 34; custom synthesized by PolyPeptide Laboratories (EGTFISDYSIAMDKIRQQDFVNWLLAQKGKKSDWKHNITQ) [reference compound]” the “Antagonism of GIP(1-42)-induced cAMP response (in words)” value (human GIP receptor [2]) was “higher potency compared to human GIP (3-42), yet not as high as human GIP(3-30)NH2” and the “Intrinsic agonistic activity in cAMP accumulation” value (human GIP receptor [2]) was “neither of the GIP(3-42) variants had any intrinsic agonistic activity”.
CC[C@H](C)[C@H](NC(=O)[C@H](CO)NC(=O)[C@H](Cc1ccc(O)cc1)NC(=O)[C@H](CC(=O)O)NC(=O)[C@H](CO)NC(=O)[C@@H](NC(=O)[C@H](Cc1ccccc1)NC(=O)[C@@H](NC(=O)CNC(=O)[C@H](CCC(=O)O)NC(=O)[C@H](C)NC(=O)[C@@H](N)Cc1ccc(O)cc1)[C@@H](C)O)[C@@H](C)CC)C(=O)N[C@@H](C)C(=O)N[C@@H](CCSC)C(=O)N[C@@H](CC(=O)O)C(=O)N[C@@H](CCCCN)C(=O)N[C@H](C(=O)N[C@@H](Cc1c[nH]cn1)C(=O)N[C@@H](CCC(N)=O)C(=O)N[C@@H](CCC(N)=O)C(=O)N[C@@H](CC(=O)O)C(=O)N[C@@H](Cc1ccccc1)C(=O)N[C@H](C(=O)N[C@@H](CC(N)=O)C(=O)N[C@@H](Cc1c[nH]c2ccccc12)C(=O)N[C@@H](CC(C)C)C(=O)N[C@@H](CC(C)C)C(=O)N[C@@H](C)C(=O)N[C@@H](CCC(N)=O)C(=O)N[C@@H](CCCCN)C(N)=O)C(C)C)[C@@H](C)CC [GIP(1-30)NH2, reference compound] was tested, and the “Intrinsic agonistic activity in cAMP accumulation” value (human GIP receptor [2]) was “full agonist”.
In the case of CC[C@H](C)[C@H](N)C(=O)N[C@@H](CO)C(=O)N[C@@H](CC(=O)O)C(=O)N[C@@H](Cc1ccc(O)cc1)C(=O)N[C@@H](CO)C(=O)N[C@H](C(=O)N[C@@H](C)C(=O)N[C@@H](CCSC)C(=O)N[C@@H](CC(=O)O)C(=O)N[C@@H](CCCCN)C(=O)N[C@H](C(=O)N[C@@H](Cc1c[nH]cn1)C(=O)N[C@@H](CCC(N)=O)C(=O)N[C@@H](CCC(N)=O)C(=O)N[C@@H](CC(=O)O)C(=O)N[C@@H](Cc1ccccc1)C(=O)N[C@H](C(=O)N[C@@H](CC(N)=O)C(=O)N[C@@H](Cc1c[nH]c2ccccc12)C(=O)N[C@@H](CC(C)C)C(=O)N[C@@H](CC(C)C)C(=O)N[C@@H](C)C(=O)N[C@@H](CCC(N)=O)C(=O)N[C@@H](CCCCN)C(N)=O)C(C)C)[C@@H](C)CC)[C@@H](C)CC [GIP(7-30)NH2, reference compound], the “Slope of Schild plot” value (human GIP receptor [2]) is reported as 0.17±0.03 and the IC50 (human GIP receptor [2]) is reported as 137 nM.
